The target in one test is human mPGES1 (Homo sapiens (Human), UniProt O14684). Kind of test: Inhibition activity for human mPGES1 (enzyme assay, PGE2 HTRF). The settings on record: membrane protein from HEK-293 F transfected with human mPGES1. Format: biochemical. On the procedure: The method described here is used for determining the inhibition activity of the present compounds for human mPGES1.
• 1. PGE2 Assay kit (Cisbio, #62P2APEB) • 2. Prostaglandin H2 (Sigma, #P7867-1MG) • 3. FlexStation3 microplate reader. II. Experimental Procedure • 1. Obtaining the membrane proteins of mPGES1 enzyme
The cell density of HEK-293 F was grown to 6×10^5 per milliliter and was transferred with the plasmid containing human mPGES1 gene by transfection reagent PEI the next day. The cells were continuously cultured for 72 hours at 37° C. with shaking. After centrifuging at 1100 g for 5 minutes, the cells were harvested. After ultrasonication in an ice bath and centrifugation at 5000 g for 10 minutes, the supernatant was obtained. The supernatant was centrifuged at 100000 g for 1 hour to obtain a precipitate. The precipitate was resuspended with storage buffer containing 10% glycerinum, subpackaged and frozen rapidly under liquid nitrogen, and stored at −80° C. • 2. mPGES1 enzyme assay
mPGES1 was diluted with assay buffer and added into plate at 49 μL/well supplemented with 1 μL of compound (the final concentration of each compound at seven gradient concentrations was 10000 nM, 1000 nM, 100 nM, 10 nM, 1 nM, 0.1 nM and 0.01 nM). […] Then, each well was added with 53.8 μL of 6 mg/mL SnCl2 to quench the reaction. The sample was diluted with dilute buffer at 1:400. 10 μl of diluted sample, 5 μL PGE2-d2 and 5 μL anti-PGE2 Cryptate were added to a black 384-well plate, and incubated at 4° C. overnight. HTRF was determined using Flexstation, and the IC50 of the compounds was obtained by data processing software.
The inhibition activity of the present compounds on mPGES1 was tested by the assay described above.

The subject of test [1] is secretion of PGE2 by A549 cells stimulated with IL-1β. Kind of test: Inhibition of the secretion of PGE2 by A549 cells stimulated with IL-1β. Format: cell-based. The settings on record: Homo sapiens, A549; IL-1β 0.2 ng/mL, 24 hours. The source says: The method described here was used for determining the inhibition activity of the present compounds on the secretion of PGE2 by A549 cells stimulated with IL-1β.
• 1. PGE2 Assay kit (Cisbio, #62P2APEB) • 2. IL-1β (Peprotech, # AF-200-01B) • 3. Cell line: A549 (ATCC: CCL-185) • 4. FlexStation3 microplate reader. II. Experimental Procedure
On the first day, A549 cells were inoculated in a 96-well plate at 40000/well. On the second day, the culture medium in the 96-well plate was removed and then added with 90 μL of compound diluted with culture medium (the concentration of each compound at seven gradient concentrations was 11111 nM, […], 1.11 nM, 0.11 nM and 0.011 nM). The cells were incubated for 30 minutes at 37° C. in an incubator, and then added with IL-1β to a final concentration of 0.2 ng/mL. Then, the cells were incubated for another 24 hours at 37° C. On the third day, 10 μl of supernatant, 5 μL of PGE2-d2 and 5 μL of anti-PGE2 Cryptate were added into a black 384-well plate, and then incubated at 4° C. overnight. HTRF was determined using Flexstation, and the IC50 of the compounds was obtained by data processing software.
The inhibition activity of the present compounds on the secretion of PGE2 by A549 cells stimulated with IL-1β was determined by the assay described above.

Sequence of human mPGES1 (O14684 whole entry): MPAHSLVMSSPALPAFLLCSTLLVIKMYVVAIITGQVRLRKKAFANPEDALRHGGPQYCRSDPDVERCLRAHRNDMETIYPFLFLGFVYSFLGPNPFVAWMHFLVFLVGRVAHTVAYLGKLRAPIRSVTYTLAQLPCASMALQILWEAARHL

Turning to `CC(C)(F)C(=O)NCc1cnc(C(F)F)c(C(=O)Nc2ccc3c(c2)CN(c2ccc(C(F)(F)F)cc2)C3)c1` [Example 26, 2-(Difluoromethyl)-5-(((2-fluoro-2-methyl-propanoyl)amino)methyl)-N-(2-(4-(trifluoromethyl)phenyl)isoindolin-5-yl)nicotinamide], the IC50 on human mPGES1 worked out at 3.38 nM; in test [1], 46 nM.

With `Cn1c(-c2ccc(F)cc2)cc2cc(NC(=O)c3cc(CNC(=O)C4(C(F)(F)F)CC4)ccc3Cl)ccc21` [Example 34, 2-Chloro-N-(2-(4-fluorophenyl)-1-methyl-1H-indol-5-yl)-5-(((1-(trifluoromethyl)cyclopropanecarbonyl)amino)methyl)benzamide], the half-inhibitory concentration (IC50) turned out to be 7.75 nM against human mPGES1 and 12.2 nM in test [1].

As for `CC(C)C(=O)NCc1cnc(C(F)F)c(C(=O)Nc2ccc3oc(-c4ccc(C(F)(F)F)cc4)nc3c2)c1` [Example 38, 2-(Difluoromethyl)-5-((2-methylpropanoylamino)methyl)-N-(2-(4-(trifluoromethyl)phenyl)benzo[d]oxazol-5-yl)nicotinamide], the IC50 against human mPGES1 stood at 5.43 nM; in test [1] it was 42.9 nM.

With `CC(C)C(=O)NCc1cnc(C(F)F)c(C(=O)Nc2ccc3oc(-c4ccc(C(F)(F)F)cc4)cc3c2)c1` [Example 39, 2-(Difluoromethyl)-5-((2-methylpropanoylamino)methyl)-N-(2-(4-(trifluoromethyl)phenyl)benzofuran-5-yl)nicotinamide], the IC50 against human mPGES1 was found to be 3.68 nM; in test [1], 30.5 nM.

As to `CC(C)C(=O)NCc1cnc(C(F)F)c(C(=O)Nc2ccc3c(c2)CN(c2ccc(C(F)(F)F)cc2)C3)c1` [Example 40, 2-(Difluoromethyl)-5-((2-methylpropanoylamino)methyl)-N-(2-(4-(trifluoromethyl)phenyl)isoindolin-5-yl)nicotinamide], the results for the IC50 (on human mPGES1; in test [1]) were 22.4 nM and 16.9 nM, respectively.

For `CC1(C(=O)NCc2cnc(C(F)F)c(C(=O)Nc3ccc4oc(-c5ccc(C(F)(F)F)cc5)nc4c3)c2)CC1` [Example 43, 2-(Difluoromethyl)-5-(((1-methylcyclopropanecarbonyl)amino)methyl)-N-(2-(4-(trifluoromethyl)phenyl)benzo[d]oxazol-5-yl)nicotinamide], the concentration for half-maximal inhibition (IC50) worked out at 16 nM at human mPGES1 and 58.2 nM in test [1].

For the molecule `CC(C)C(=O)NCc1cnc(C(F)F)c(C(=O)Nc2ccc3oc(-c4ccc(Cl)cc4)nc3c2)c1` [Example 45, N-(2-(4-Chlorophenyl)benzo[d]oxazol-5-yl)-2-(difluoromethyl)-5-((2-methylpropanoylamino)methyl)nicotinamide], the IC50 against human mPGES1 was determined as 49.4 nM; in test [1], 25.9 nM.

Consider `CC(C)(F)C(=O)NCc1cnc(C(F)F)c(C(=O)Nc2ccc3c(c2)cc(-c2ccc(Cl)cc2)n3[C@H]2CCOC2)c1` [Example 46, (S)-N-(2-(4-Chlorophenyl)-1-(tetrahydrofuran-3-yl)-1H-indol-5-yl)-2-(difluoromethyl)-5-(((2-fluoro-2-methyl-propanoyl)amino)methyl)nicotinamide], for which the IC50 against human mPGES1 was 2.71 nM; in test [1], 24.7 nM.

For `CC(C)(F)C(=O)NCc1cnc(C(F)F)c(C(=O)Nc2ccc3c(c2)cc(-c2ccc(Cl)cc2)n3[C@@H]2CCOC2)c1` [Example 47, (R)-N-(2-(4-Chlorophenyl)-1-(tetrahydrofuran-3-yl)-1H-indol-5-yl)-2-(difluoromethyl)-5-(((2-fluoro-2-methyl-propanoyl)amino)methyl)nicotinamide], the IC50 against human mPGES1 was 5.72 nM; in test [1], 18.9 nM.

In the case of `CC(C)(F)C(=O)NCc1cnc(C(F)F)c(C(=O)Nc2ccc3c(c2)CN(c2cccc(C(F)(F)F)c2)C3)c1` [Example 49, 2-(Difluoromethyl)-5-(((2-fluoro-2-methyl-propanoyl)amino)methyl)-N-(2-(3-(trifluoromethyl)phenyl)isoindolin-5-yl)nicotinamide], the IC50 against human mPGES1 was determined as 8.29 nM; in test [1], 24 nM.

Regarding `CC(C)C(=O)NCc1cnc(C(F)F)c(C(=O)Nc2ccc3nc(-c4ccc(C(F)(F)F)cc4)sc3c2)c1` [Example 54, 2-(Difluoromethyl)-5-((2-methylpropanoylamino)methyl)-N-(2-(4-(trifluoromethyl)phenyl)benzo[d]thiazol-6-yl)nicotinamide], the IC50 against human mPGES1 came to 47.1 nM; in test [1], 58.5 nM.

In the case of `CC(C)(F)C(=O)NCc1cnc(C(F)F)c(C(=O)Nc2ccc3oc(-c4cccc(C(F)(F)F)c4)nc3c2)c1` [Example 56, 2-(Difluoromethyl)-5-(((2-fluoro-2-methyl-propanoyl)amino)methyl)-N-(2-(3-(trifluoromethyl)phenyl)benzo[d]oxazol-5-yl)nicotinamide], the 50% inhibitory concentration (IC50) turned out to be 7.74 nM against human mPGES1 and 27.5 nM in test [1].

As for `CC(C)(C)C(=O)NCc1ccc(Cl)c(C(=O)Nc2ccc3c(c2)C(=O)N(c2ccc(Cl)cc2)C3)c1` [Example 57, 2-Chloro-N-(2-(4-chlorophenyl)-3-oxo-isoindolin-5-yl)-5-((2,2-dimethylpropanoylamino)methyl)benzamide], the results for the IC50 (against human mPGES1; in test [1]) were 6.75 nM and 6.22 nM, respectively.

With `CC(C)(C)C(=O)NCc1ccc(Cl)c(C(=O)Nc2ccc3c(c2)C(=O)N(c2ccc(C(F)(F)F)cc2)C3)c1` [Example 58], the IC50 came to 8.51 nM on human mPGES1 and 2.18 nM in test [1].

Regarding `CC(C)(F)C(=O)NCc1cnc(C(F)F)c(C(=O)Nc2ccc3c(c2)C(=O)N(c2cccc(C(F)(F)F)c2)C3)c1` [Example 59, 2-(Difluoromethyl)-5-(((2-fluoro-2-methyl-propanoyl)amino)methyl)-N-(3-oxo-2-(3-(trifluoromethyl)phenyl)isoindolin-5-yl)nicotinamide], the IC50 against human mPGES1 stood at 1.18 nM; in test [1], 20.5 nM.

The values are drawn from patent publication US10081629B2, “Amide derivatives and pharmaceutically acceptable salts thereof, preparation method thereof and medicinal application thereof” (Shanghai Hengrui Pharmaceutical Co., Ltd., priority 2014, dated 2018).
